Results on twelve compounds are retold here after ChEMBL document CHEMBL1201862, “PubChem BioAssay data set” (2004).

Common to all, as to assay: DTP human tumour cell line panel, 48 h
The test system of assay [1] is HCT-15.
The subject of assay [2] is NCI-H522.
Assay [3] concerns HCT-116.
The subject of assay [4] is CCRF-CEM.
In assay [5] the test system is NCI-H23.
The test system of assay [6] is OVCAR-4.
The test system of assay [7] is LOX IMVI.
In assay [8] the test system is KM12.
Assay [9] has as its system COLO 205.
Assay [10] relates to UACC-257.
In assay [11] the test system is CAKI-1.
Assay [12] has as its system SK-MEL-5.
Assay [13] relates to MOLT-4.
In assay [14] the test system is Malme-3M.
In assay [15] the test system is RXF 393.
The test system of assay [16] is HT-29.
For assay [17], the system named is HOP-62.
Assay [18] deals with OVCAR-3.
For assay [19], the system named is MCF7.
The subject of assay [20] is MDA-MB-231.

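1) Cells in 96-well plates. 2) Compound, 48 h, 5 concentrations. 3) Linear interpolation between surrounding doses. 4) Unreached endpoint = highest concentration. Here, GI50 denotes the concentration required for 50% inhibition of growth.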 Active and inactive are the calls of the source. Cut-off read from the data, not from the text of the source: active = GI50 up to about 1.1 µM and inactive = higher.

As a reminder, the GI50 is the concentration giving 50% growth inhibition. On to `C=C(C)C1CC=C(C(=O)O)CC1` (stereo not given), for which the GI50 in assay [1] was 871 µM; in assay [2], 887 µM (inactive); in assay [3], 793 µM (inactive); in [4], 863 µM (inactive); in assay [5], 968 µM (inactive); in [6], 1760 µM (inactive). Also, the GI50 in assay [7] is 1220 µM (inactive); in assay [8] it was 859 µM (inactive); in [9], 592 µM (inactive); in assay [10], 1190 µM (inactive); in assay [11], 1300 µM (inactive); in [12], 752 µM (inactive). For the same compound, the GI50 is 2330 µM (inactive) in assay [13]; 809 µM (inactive) in [14]; 942 µM (inactive) in assay [15]; 1450 µM (inactive) in [16]; 995 µM (inactive) in [17]; 877 µM (inactive) in assay [18].

As for `Cc1ccc(Sc2ccc(C)cc2[N+](=O)[O-])c([N+](=O)[O-])c1`, the GI50 is greater than 100 µM in [1]; > 100 µM (inactive) in assay [2]; > 100 µM (inactive) in assay [3]; > 100 µM (inactive) in assay [4]; > 100 µM (inactive) in assay [5]; > 100 µM (inactive) in assay [6]. Moreover, the GI50 in assay [7] was > 100 µM (inactive); in assay [8], > 100 µM (inactive); in [9], > 100 µM (inactive); in assay [10], > 10 µM (inactive); in assay [11], > 10 µM (inactive); in assay [12], > 100 µM (inactive). Besides, the GI50 in assay [13] is > 100 µM (inactive); in assay [14], > 100 µM (inactive); in assay [15] it was > 100 µM (inactive); in assay [16], > 10 µM (inactive); in assay [17] it was > 100 µM (inactive); in assay [18], > 100 µM (inactive).

`CC1=NN(c2cccc(Cl)c2)C(=N/c2nc3ccccc3s2)/C1=C\C=C\c1ccccc1`: the GI50 was 32.2 µM in assay [1]; 28.8 µM (inactive) in assay [2]; 28.2 µM (inactive) in [3]; 1.77 µM (inactive) in assay [4]; 32.1 µM (inactive) in assay [5]; 45.1 µM (inactive) in assay [6]. Besides, the GI50 in [7] is 32.2 µM (inactive); in [8] it was 34.2 µM (inactive); in assay [10], 31.5 µM (inactive); in assay [11], 28.4 µM (inactive); in assay [12], 20.6 µM (inactive); in [19], 25.7 µM (inactive). For the same compound, the GI50 in [13] is 0.369 µM (active); in [15], 51.4 µM (inactive); in assay [16] it was 33.5 µM (inactive); in assay [17] it was 30.8 µM (inactive); in assay [18], 27 µM (inactive).

As to `O=c1c2c3ccccc3[nH]c2c2cccc3c2n1CCC3`, the GI50 in assay [1] is 32.4 µM; in [3] it was 36.6 µM (inactive); in assay [4] it was 30.5 µM (inactive); in assay [5] it was 45.8 µM (inactive); in assay [8], 33.9 µM (inactive); in assay [9], 54 µM (inactive). Besides, the GI50 in assay [10] is 83 µM (inactive); in assay [20] it was 28.3 µM (inactive); in [12], 17.6 µM (inactive); in [19], 35.1 µM (inactive); in assay [13], 25.5 µM (inactive); in [14] it was 22 µM (inactive). The GI50 is 29.4 µM (inactive) in assay [15], 29.6 µM (inactive) in assay [16], 54.1 µM (inactive) in [17] and 30.6 µM (inactive) in [18].

In the case of `Cc1cccc(/C=N/NC(=S)Nc2ccccc2)n1`, the GI50 is 1.98 µM in assay [1]; 1.48 µM (inactive) in [2]; 3.47 µM (inactive) in assay [3]; 6.18 µM (inactive) in [5]; 6.31 µM (inactive) in assay [6]; 2.67 µM (inactive) in assay [7]. Moreover, the GI50 is 4.72 µM (inactive) in [8]; 2.75 µM (inactive) in [9]; 1.82 µM (inactive) in [10]; 5.19 µM (inactive) in assay [11]; 3.08 µM (inactive) in assay [12]; 2.89 µM (inactive) in assay [19]. The GI50 is 3.27 µM (inactive) in assay [13]; 5.04 µM (inactive) in [14]; 5.48 µM (inactive) in assay [15]; 3.17 µM (inactive) in assay [16]; 2.93 µM (inactive) in [17]; 1.97 µM (inactive) in assay [18].

`COc1cccc(C2c3cc4c(cc3OC(N3CCCC3)C2c2ccccc2)OCO4)c1O` (stereo not given): the GI50 in assay [1] is 6 µM; in assay [2], 12 µM (inactive); in [3], 4.21 µM (inactive); in [4] it was 5.13 µM (inactive); in assay [5], 14 µM (inactive); in assay [7], 12.4 µM (inactive). The GI50 in assay [8] was 2.76 µM (inactive); in [9], 7.24 µM (inactive); in assay [10], 11.4 µM (inactive); in assay [11] it was 2.88 µM (inactive); in assay [12] it was 10.8 µM (inactive); in [19], 8.65 µM (inactive). Besides, the GI50 in assay [13] is 3.85 µM (inactive); in assay [16], 7.43 µM (inactive); in assay [17], 21 µM (inactive); in [18], 3.34 µM (inactive).

In the case of `CC(C)OC(=O)C1Cc2c([nH]c3ccccc23)C(c2ccccc2)N1` (stereo not given), the GI50 in assay [1] was 75.3 µM; in [2], 29.2 µM (inactive); in [3], 62.4 µM (inactive); in assay [4] it was 79.4 µM (inactive); in assay [5], 67.1 µM (inactive); in [6], 79.8 µM (inactive). Moreover, the GI50 was > 100 µM (inactive) in assay [7]; 97.1 µM (inactive) in assay [8]; > 100 µM (inactive) in assay [9]; 68.5 µM (inactive) in assay [10]; > 100 µM (inactive) in assay [11]; 91.2 µM (inactive) in [12]. Also, the GI50 is 42.5 µM (inactive) in [13]; 25.7 µM (inactive) in assay [14]; 23.8 µM (inactive) in assay [15]; 98.4 µM (inactive) in assay [16]; 23.4 µM (inactive) in [17]; > 100 µM (inactive) in assay [18].

Regarding `O=c1ccn([C@@H]2C[C@@H]2CO)c(=O)[nH]1`, the concentration for 50% growth inhibition (GI50) is greater than 100 µM in [1]; > 100 µM (inactive) in assay [2]; > 100 µM (inactive) in [3]; > 100 µM (inactive) in assay [4]; > 100 µM (inactive) in assay [5]; > 100 µM (inactive) in assay [6]. Besides, the GI50 in [7], in assay [8], in assay [9], in assay [10], in assay [11] and in assay [12] was > 100 µM (inactive) in each case. Besides, the GI50 in assay [19], in assay [14], in assay [15], in assay [16] and in assay [17] was > 100 µM (inactive) throughout.

On to `CC[C@H]1[C@@H](C)C=C[C@@H](C)N1S(=O)(=O)c1ccc(C)cc1`, for which the 50% growth inhibitory concentration (GI50) in [1] was 61.2 µM; in assay [2], 30.3 µM (inactive); in [3] it was 51.6 µM (inactive); in assay [4], > 100 µM (inactive); in assay [5], > 100 µM (inactive); in assay [6], > 100 µM (inactive). Also, the GI50 in assay [7] is > 100 µM (inactive); in assay [8], > 100 µM (inactive); in assay [9], > 100 µM (inactive); in assay [10], > 100 µM (inactive); in [11], > 100 µM (inactive); in assay [12] it was 92 µM (inactive). Further, the GI50 in assay [13] is 79.3 µM (inactive); in assay [14], > 100 µM (inactive); in [15], 48.6 µM (inactive); in assay [16], > 100 µM (inactive); in [17], > 100 µM (inactive); in assay [18], > 100 µM (inactive).

`CCOC12OC3=C(CC1CC1=C(CCC1=O)O2)C(=O)CC3` (stereo not given): the GI50 is greater than 100 µM in assay [1]; > 100 µM (inactive) in [2]; > 100 µM (inactive) in [3]; > 100 µM (inactive) in assay [4]; > 100 µM (inactive) in assay [5]; > 100 µM (inactive) in [6]. The GI50 in [7], in assay [8], in [9], in assay [10], in [11] and in assay [12] was > 100 µM (inactive) each time. Moreover, the GI50 in assay [13], in assay [14], in assay [15], in assay [16], in [17] and in assay [18] was > 100 µM (inactive) each time.

As to `Cc1c(Cl)ccc2[s+]snc12`, the GI50 in assay [1] is 46.2 µM; in assay [2], 19.6 µM (inactive); in [3], 22.7 µM (inactive); in assay [4] it was 23.2 µM (inactive); in assay [5], 52.5 µM (inactive); in assay [6] it was 42.3 µM (inactive). For the same compound, the GI50 in assay [7] is 23.7 µM (inactive); in assay [8] it was 43.1 µM (inactive); in [9], > 100 µM (inactive); in assay [10] it was 30.3 µM (inactive); in assay [11] it was 37.9 µM (inactive); in assay [12] it was 21 µM (inactive). Further, the GI50 in assay [13] was 26.7 µM (inactive); in assay [14], 49.8 µM (inactive); in [15], 19.8 µM (inactive); in assay [16] it was 34.4 µM (inactive); in assay [17], 51.6 µM (inactive); in assay [18], 51.3 µM (inactive).

Take `COc1cc(CCc2cccnc2)cc(OC)c1OC`: the GI50 in assay [1] is greater than 100 µM; in assay [2] it was 65.8 µM (inactive); in assay [3], > 100 µM (inactive); in assay [4], > 100 µM (inactive); in [5] it was > 100 µM (inactive); in [6] it was > 100 µM (inactive). For the same compound, the GI50 in assay [7], in assay [8], in assay [9], in assay [10], in assay [11] and in [12] was > 100 µM (inactive) throughout. Moreover, the GI50 in [13], in [14], in assay [15], in assay [16], in assay [17] and in [18] was > 100 µM (inactive) throughout.
